Test results from patent US6426368B2, “Method for preventing and treating alcoholism” (Warner-Lambert Company, priority 1997, dated 2002).

Columns and labels:
Format in all cases: in vivo, rat
[1] = tested on: rectal distension-induced abdominal contractions; experiment: Abdominal response induced by rectal distension in rats (basal)
Experimental: Male Wistar rats weighing 250 to 350 g were surgically prepared for electromyography, according to a standard technique. Rats were anesthetized by i.p. injection of acepromazine and ketamine (Imalgene 1000, Rhöne-Mérieux, Lyon, France) at doses of 0.6 and 120 mg/kg, respectively. […] Electrodes were exteriorized on the back of the neck and protected by a glass tube attached to the skin. Animals were individually housed in polypropylene cages and kept in a temperature-controlled room (21° C.). They were allowed free access to water and food (UAR pellets, Epinay, France).
(§1) Electromyographic recording began 5 days after surgery. The electrical activity of abdominal striated muscles was recorded with an electroencephalograph machine (Mini VIII, Alvar, Paris, France) using a short-time constant (0.03 sec) to remove low-frequency signals (<3 Hz) and a paper speed of 3.6 cm/minute.
Rats were placed in plastic tunnels (6 cm diameter; 25 cm length) where they could not move, escape or turn around, in order to prevent damage to the balloon. They are accustomized to this procedure for 3 or 4 days before rectal distension (RD) in order to minimize stress reaction during experiments. […] The balloon used for distension was an arterial embolectomy catheter (Fogarty, Edwards Laboratories, Inc., Santa Ana, USA). Rectal distension (RD) was performed by insertion of the balloon (2-mm diameter; 2-cm long) in the rectum, at 1 cm of the anus, the catheter being fixed at the tail. It was inflated progressively by steps of 0.4 mL, from 0 to 1.6 mL, each step of inflation lasting 5 minutes. To detect possible leakage, the volume of water introduced in the balloon was checked by complete removal with a syringe at the end of the distension period. […]
(§2) Statistical analysis of the number of abdominal contractions occurring during each 5-minute period during RD was performed by one-way ANOVA followed by Student's paired t-test. Values were expressed as the mean±SEM, and differences were considered significant for p<0.05.

[2] = tested on: intracolonic formalin-induced pain; experiment: Formalin-induced inflammatory colonic pain in rats; conditions: gabapentin 100, 300, 500 mg/kg sc; CI-1008 100, 200 mg/kg sc
Experimental: Administration of formalin into the wall of the rat colon causes acute inflammation and visceral pain. The aim of this study was to evaluate the antinociceptive activity of gabapentin and CI-1008 in visceral pain induced by colonic intrapariental injection of formalin.
Adult female Sprague-Dawley rats weighing 240 to 260 g were used in the study. The animals were housed three per cage in a regulated environment (20±1° C., 50±5% humidity, with light 8:00 AM to 8:00 PM) prior to use in the test.
Each test animal was placed in a transparent plastic cage (27×43×28 cm) with a layer of wood shavings on the floor. Drinking water was available. […] The injection site and the zone of diffusion of Evans Blue were recorded by image analysis software. […]
As listed in increasing order of pain intensity, these behaviors were: (i) abdominal licking and nibbling (L), (ii) body stretching, i.e., backward extension of the hind limbs (B), (iii) contraction of the flanks, sometimes evolving to a stretching attitude (C), and (iv) whole body contraction, the rat standing with its back curved, occasionally further graded according to the duration of the given episode: W1 for less than 30 seconds, W2 between 30 seconds and 1 minute, and W3 for more than 1 minute. Behaviors were recorded for each animal throughout the 2-hour test on individual charts. […]

[3] = tested on: colonic inflammatory effect of TNBS; experiment: Colonic inflammatory parameters after TNBS in rats; conditions: gabapentin 100-500 mg/kg sc, CI-1008 30-200 mg/kg sc; Day 7 after TNBS
Experimental: (§3) Pain threshold (pressure of distension inducing the first abdominal contraction) after distal colonic distension was determined at Day 7 in two groups of awake rats: control animals and TNBS-treated animals. […] Inflammatory parameters (colon weight, area of hyperemia and necrosis and colonic myeloperoxidase content) were measured in the proximal colon at Day 7 after TNBS treatment.
Gabapentin (100, 300, and 500 mg/kg sc) and CI-1008 (30, 60, 100, and 200 mg/kg sc) were administered 30 minutes before colonic distension and measurement of the inflammatory parameters.

colonic pain threshold = experiment: Colonic pain threshold in normal rats (colonic distension); conditions: control animals
Experimental: (§4) Male Sprague-Dawley rats weighing 340 to 400 g were used in the study. The animals were housed three per cage in a regulated environment (20±1° C., 50±5% humidity, with light 8:00 AM to 8:00 PM). Under anethesia (ketamine 80 mg/kg i.p.; acepromazin 12 mg/kg i.p.), TNBS (50 mg/kg), or saline (1.5 mL/kg) was injected into the proximal colon (1 cm from the cecum). After the surgery, animals were individually housed in the regulated environment.
(§5) A balloon catheter (5-6 cm length) was inserted through the anus into the colon and kept in position (tip of balloon 5 cm from the anus) by taping the catheter to the base of the tail. The balloon was progressively inflated by step of 5 mm Hg, from 0 to 75 mm Hg, each step of inflation lasting 30 seconds. Each cycle of colonic distension was controlled by a standard barostat. The threshold corresponds to the pressure which produced the first abdominal contraction, at which time the cycle of distension was discontinued. To determine the colonic threshold, four cycles of distension were performed on the same animal.

[4] = tested on: lipopolysaccharide-induced delayed rectal allodynia; experiment: LPS-colonic hypersensitivity assay (LPS-induced delayed rectal allodynia); conditions: 30 mg/kg 30 minutes prior to rectal distension; 12 hours after LPS 1 mg/kg IP; volume 0.4 mL; LPS alone 9.7±1.0, before LPS 3.7±1.0
Excerpt: The GABA analogs also have been evaluated for their ability to control and treat gastrointestinal disorders characterized as IBD and IBS. The assay utilized to evaluate the GABA analogs measures the effects of compound on lipopolysaccharide-induced delayed rectal allodynia in rats. Intraperitoneal (IP) injections of the endotoxin lipopolysaccharide (LPS) are known to induce long-lasting hyperalgesia in somatic pain models. The following assay LPS-colonic hypersensitivity assay was designed to evaluate the effect of IP injections of LPS on pain visceral threshold in an experimental model of rectal distension.
Male Wistar rats weighing 250 to 350 g were surgically prepared for electromyography, according to a standard technique. […]
as §1, with “cm/minute. […]” for “cm/minute.”
as §2

[5] = tested on: cyclooxygenase product prostaglandin E2 (PGE2); experiment: PGE2 content of gastric mucosa biopsies (ELISA) after indomethacin (Example 3); conditions: any dose tested (1-200 mg/kg oral)
Experimental: Gabapentin or pregabalin (CI-1008) were dissolved in water and administered orally at the following doses: 1, 10, 100, and 200 mg/kg in a volume of 1 mL. Control animals were dosed with an equal volume of vehicle (1 mL of water). Sixty minutes later, all the animals received 1 mL of a solution of indomethacin dissolved in 5% aqueous NaHCO3 (80 mg/kg). Control animals received 1 mL of 5% aqueous NaHCO3 orally. Experimental groups were as follows:
Gastric damage caused by indomethacin correlates with inhibition of the cyclooxygenase product prostaglandin E2 (PGE2). Animals were sacrificed by decapitation 4 hours post-indomethacin administration. The stomach was removed and opened along the greater curvature and its image digitized and stored on an optical disk using a 486-based PC computer equipped with CUE3 system imaging analysis software (Olympus Corp., Marietta, Ga., USA). Two 6-mm biopsies were taken from a constant region of the gastric mucosa located in each side of the glandular portion of the stomach, and their PGE2 content was measured using a commercially available ELISA kit (Assay Designs Inc., Ann Arbor, Mich., USA). The presence of gastric damage was determined using the retrieved electronic image, and the extent of damage was measured using the CUE3 imaging software. Data are expressed as a percent of gastric area damaged and the PGE2 content (pg/mL).

[6] = tested on: TNBS-induced colonic allodynia; experiment: TNBS-induced chronic colonic allodynia in rats, colonic distension threshold; conditions: for Colonic Threshold: TNBS rats
Experimental: GABA analogs were evaluated in rats suffering from chronic visceral allodynia induced by trinitrobenzene sulfonic acid (TNBS). […] In humans, digestive disorders are often associated with visceral pain. In these pathologies, the visceral pain threshold is decreased, indicating a visceral hypersensitivity. Consequently, the following study was designed to evaluate the effect of injection of TNBS into the colon on visceral pain threshold in an experimental model of colonic distension.
as §4, §5
In a third series, a group of eight rats treated with TNBS received a subcutaneous (sc) injection of gabapentin or CI-1008 30 minutes prior to initiation of the colonic distension cycle.
All test compounds were dissolved in saline except TNBS. TNBS was dissolved in EtOH 30% (w/v). Subcutaneous injection of vehicle was given in a volume of […].
Statistical significance between each group was determined using a one-way ANOVA followed by Student's unpaired t-test. Differences were considered statistically significant at p<0.05.
as §3

Row | SMILES | number of cramps on rectal distension ([1]; 10 mg/kg injected 120 minutes before rectal distension, all distension volumes) | number of cramps on rectal distension ([1]; 30 mg/kg injected 120 minutes before rectal distension, all distension volumes) | number of cramps on rectal distension ([1]; 30 mg/kg, distension volumes of 0.4 and 0.8 mL) | pain score induced by intracolonic formalin [2] | colonic inflammatory effect of TNBS (colon weight, hyperemia, necrosis, myeloperoxidase) [3] | colonic pain threshold in normal conditions (colonic pain threshold; 200 mg/kg sc) | number of abdominal contractions [4] | modification of indomethacin inhibition of PGE2 [5] | Colonic Threshold ([6]; 30 mg/kg sc 30 min before distension, TNBS 17.81, Sham 33.44, Control 43.39) | Colonic Threshold ([6]; 60 mg/kg sc, TNBS 17.81, Control 43.39) | allodynia induced by TNBS ([6]; 100 mg/kg sc) | inhibition of TNBS-induced colonic allodynia / decrease in pain threshold (dose relation) ([6]; gabapentin 100, 300, 500 mg/kg sc, CI-1008 30, 60, 100, 200 mg/kg sc, 30 minutes before colonic distension) | colonic pain threshold in normal conditions (colonic pain threshold; 0.3 mg/kg sc) | TNBS-induced decrease in pain threshold after colonic distension ([6]; 0.1 mg/kg sc)
1 | CC(C)C[C@H](CN)CC(=O)O [CI-1008, (S)-3-(aminomethyl)-5-methylhexanoic acid] | had a similar effect at all distension volumes | had a similar effect at all distension volumes | reduced the number of cramps | significantly and dose-dependently decreased the pain score | neither gabapentin nor CI-1008 inhibited the colonic inflammatory effect of TNBS | neither gabapentin (500 mg/kg sc) nor CI-1008 (200 mg/kg sc) modified the colonic pain threshold | 1.8±0.9 | Neither gabapentin nor CI-1008, at any dose tested, were able to significantly modify this effect | 21.72 mm Hg | 25.47 mm Hg | completely suppressed | dose-related inhibition | – | –
2 | CN1CC[C@]23c4c5ccc(O)c4O[C@H]2[C@@H](O)C=C[C@H]3[C@H]1C5 [Morphine] | – | – | – | – | – | – | – | – | – | – | – | – | significantly increased the colonic pain threshold | completely suppressed
